The supplement of paper PMC11061612

Experiments:
Assay in all cases: combination Emax (second highest fraction inhibited in the dose matrix, 72 h); higher = more inhibition; extreme values may be limits of the assay
[1] = test system: 8505C (Thyroid Gland Carcinoma)
Procedure, shortened: (§1)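 Bliss excess equals the observed combination effect minus the expected value EA + EB − EA·EB, where EA and EB are the effects of each agent alone. Combination Emax is the second-highest inhibition within the matrix. Inhibition was scaled from CellTiter-Glo 2.0 luminescence, with 0 set by vehicle wells and 1 by blank wells, after 72 hours of two-drug dosing of cells plated in 1536-well plates.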

[2] = test system: CHSA8926 (Chondrosarcoma)
Procedure, shortened: as §1

[3] = test system: CW-2 (Colorectal Carcinoma)
Procedure, shortened: as §1

[4] = test system: G-361 (Melanoma)
Procedure, shortened: as §1

[5] = test system: HCC1419 (Breast Carcinoma)
Procedure, shortened: as §1

[6] = test system: JHH-4 (Hepatocellular Carcinoma)
Procedure, shortened: as §1

[7] = test system: KMS-12-BM (Plasma Cell Myeloma)
Procedure, shortened: as §1

[8] = test system: KU812 (Chronic Myelogenous Leukemia)
Procedure, shortened: as §1

[9] = test system: KYSE-270 (Esophageal Squamous Cell Carcinoma)
Procedure, shortened: as §1

[10] = test system: M059J (Glioblastoma)
Procedure, shortened: as §1

[11] = test system: MOG-G-CCM (Low Grade Glioma)
Procedure, shortened: as §1

[12] = test system: NCCIT (Other Solid Carcinomas)
Procedure, shortened: as §1

[13] = test system: NCI-H3122 (Lung Adenocarcinoma)
Procedure, shortened: as §1

[14] = test system: NCI-H520 (Squamous Cell Lung Carcinoma)
Procedure, shortened: as §1

[15] = test system: NCI-H929 (Plasma Cell Myeloma)
Procedure, shortened: as §1

[16] = test system: RD (Rhabdomyosarcoma)
Procedure, shortened: as §1

[17] = test system: SJSA-1 (Osteosarcoma)
Procedure, shortened: as §1

[18] = test system: SK-GT-4 (Esophageal Adenocarcinoma)
Procedure, shortened: as §1

[19] = test system: SU-DHL-5 (B-Cell Non-Hodgkin's Lymphoma)
Procedure, shortened: as §1

[20] = test system: T-T (Esophageal Squamous Cell Carcinoma)
Procedure, shortened: as §1

Row | Structure (SMILES) | combination Emax [1] | combination Emax [2] | combination Emax [3] | combination Emax [4] | combination Emax [5] | combination Emax [6] | combination Emax [7] | combination Emax [8] | combination Emax [9] | combination Emax [10] | combination Emax [11] | combination Emax [12] | combination Emax [13] | combination Emax [14] | combination Emax [15] | combination Emax [16] | combination Emax [17] | combination Emax [18] | combination Emax [19] | combination Emax [20]
1 | COc1nnc2ccc(N3CCC(c4ccc(OCCN5CCN(C)C(=O)[C@H]5C)cc4)CC3)nn12 [AZD5153] + Cn1cnc2c(F)c(Nc3ccc(Br)cc3Cl)c(C(=O)NOCCO)cc21 [Selumetinib] (first compound max 1 µM, 7x7, partner max 10 µM) | 0.593 | 0.442 | 0.565 | 0.766 | 0.355 | 0.906 | 1 | 0.994 | 0.58 | 0.618 | 0.548 | 0.786 | 0.68 | 0.61 | 1 | 0.77 | 0.576 | 0.651 | 1 | 0.633
2 | Cc1c2c(nn1C)CSCc1cc(n(C)n1)CSc1cc(c3ccccc3c1)OCCCc1c(C(=O)O)n(C)c3c-2c(Cl)ccc13 [AZD5991] + C1CN(CCC1(C(=O)N[C@@H](CCO)C2=CC=C(C=C2)Cl)N)C3=NC=NC4=C3C=CN4 [Capivasertib] (first compound max 1 µM, 7x7, partner max 3 µM) | 0.158 | 0.597 | 0.179 | 1 | 0.555 | 0.211 | 1 | 0.858 | 0.505 | 0.44 | 0.326 | 0.82 | 0.419 | 0.561 | 1 | 0.535 | 0.374 | 0.377 | 1 | 0.922
3 | Cc1c2c(nn1C)CSCc1cc(n(C)n1)CSc1cc(c3ccccc3c1)OCCCc1c(C(=O)O)n(C)c3c-2c(Cl)ccc13 [AZD5991] + C=CCn1c(=O)c2cnc(Nc3ccc(N4CCN(C)CC4)cc3)nc2n1-c1cccc(C(C)(C)O)n1 [AZD1775] (first compound max 1 µM, partner max 1 µM) | 0.27 | 0.679 | 0.402 | 0.967 | 0.198 | 0.545 | 1 | 0.885 | 0.921 | 0.634 | 0.457 | 0.86 | 0.815 | 0.76 | 1 | 0.788 | 0.387 | 0.465 | 1 | 0.915
4 | Cc1c2c(nn1C)CSCc1cc(n(C)n1)CSc1cc(c3ccccc3c1)OCCCc1c(C(=O)O)n(C)c3c-2c(Cl)ccc13 [AZD5991] + CC1(C)CCC(CN2CCN(c3ccc(C(=O)NS(=O)(=O)c4ccc(NCC5CCOCC5)c([N+](=O)[O-])c4)c(Oc4cnc5[nH]ccc5c4)c3)CC2)=C(c2ccc(Cl)cc2)C1 [Venetoclax] (first compound max 1 µM, 7x7, partner max 1 µM) | 0.135 | 0.506 | 0.151 | 0.968 | 0.275 | 0.265 | 1 | 0.902 | 0.822 | 0.347 | 0.433 | 0.692 | 0.275 | 0.201 | 1 | 0.553 | 0.296 | 0.2 | 1 | 0.908
5 | Cc1c2c(nn1C)CSCc1cc(n(C)n1)CSc1cc(c3ccccc3c1)OCCCc1c(C(=O)O)n(C)c3c-2c(Cl)ccc13 [AZD5991] + CCN(CCO)CCCOc1ccc2c(Nc3cc(CC(=O)Nc4cccc(F)c4)[nH]n3)ncnc2c1 [AZD2811] (first compound max 1 µM, 7x7, partner max 1 µM) | 0.866 | 0.652 | 0.158 | 0.964 | 0.308 | 0.315 | 1 | 0.851 | 0.926 | 0.523 | 0.41 | 0.674 | 0.918 | 0.599 | 1 | 0.546 | 0.292 | 0.26 | 1 | 0.95
6 | Cc1c2c(nn1C)CSCc1cc(n(C)n1)CSc1cc(c3ccccc3c1)OCCCc1c(C(=O)O)n(C)c3c-2c(Cl)ccc13 [AZD5991] + CN(C)CCCOc1ccc(-c2ccc3ncc4c(c3c2)n(C2CCOCC2)c(=O)n4C)cn1 [AZD0156] (first compound max 1 µM, 7x7, partner max 1 µM) | 0.609 | 0.497 | 0.154 | 0.956 | 0.385 | 0.331 | 1 | 0.828 | 0.542 | 0.338 | 0.249 | 0.641 | 0.405 | 0.509 | 1 | 0.603 | 0.322 | 0.277 | 1 | 0.901
7 | Cc1c2c(nn1C)CSCc1cc(n(C)n1)CSc1cc(c3ccccc3c1)OCCCc1c(C(=O)O)n(C)c3c-2c(Cl)ccc13 [AZD5991] + C[C@@H]1COCCN1C2=NC(=NC(=C2)C3(CC3)[S@](=N)(=O)C)C4=C5C=CNC5=NC=C4 [AZD6738] (first compound max 1 µM, 7x7, partner max 10 µM) | 0.34 | 0.643 | 0.443 | 1 | 0.275 | 0.369 | 1 | 0.902 | 0.892 | 0.774 | 0.518 | 0.864 | 0.841 | 0.619 | 1 | 0.739 | 0.47 | 0.526 | 1 | 0.932
8 | Cc1c2c(nn1C)CSCc1cc(n(C)n1)CSc1cc(c3ccccc3c1)OCCCc1c(C(=O)O)n(C)c3c-2c(Cl)ccc13 [AZD5991] + C[C@@H](Nc1cc(F)cc(F)c1)c1cc(C(=O)N(C)C)cc2c(=O)cc(N3CCOCC3)oc12 [AZD8186] (first compound max 1 µM, 7x7, partner max 3 µM) | 0.2 | 0.797 | 0.139 | 0.942 | 0.344 | 0.271 | 1 | 0.862 | 0.622 | 0.421 | 0.447 | 0.678 | 0.352 | 0.644 | 1 | 0.521 | 0.34 | 0.288 | 1 | 0.915
9 | Cc1c2c(nn1C)CSCc1cc(n(C)n1)CSc1cc(c3ccccc3c1)OCCCc1c(C(=O)O)n(C)c3c-2c(Cl)ccc13 [AZD5991] + Cc1cc2ncnn2cc1Nc1ncc2c(n1)n(C1CCOCC1)c(=O)n2C [AZD7648] (first compound max 1 µM, 7x7, partner max 10 µM) | 0.193 | 0.515 | 0.223 | 0.956 | 0.501 | 0.262 | 1 | 0.848 | 0.508 | 0.468 | 0.302 | 0.619 | 0.442 | 0.567 | 1 | 0.521 | 0.361 | 0.327 | 1 | 0.926
10 | Cc1c2c(nn1C)CSCc1cc(n(C)n1)CSc1cc(c3ccccc3c1)OCCCc1c(C(=O)O)n(C)c3c-2c(Cl)ccc13 [AZD5991] + Cn1cnc2c(F)c(Nc3ccc(Br)cc3Cl)c(C(=O)NOCCO)cc21 [Selumetinib] (first compound max 1 µM, 7x7, partner max 3 µM) | 0.42 | 0.303 | 0.314 | 0.992 | 0.284 | 0.492 | 1 | 0.949 | 0.76 | 0.264 | 0.195 | 0.579 | 0.881 | 0.176 | 1 | 0.625 | 0.457 | 0.574 | 1 | 0.936
11 | C[C@@H]1COCCN1c1cc(C2([S@](C)(=N)=O)CC2)nc(-c2ccnc3[nH]ccc23)n1 [AZD6738] + O=C(c1cc(Cc2n[nH]c(=O)c3ccccc23)ccc1F)N1CCN(C(=O)C2CC2)CC1 [Olaparib] (first compound max 10 µM, 7x7, partner max 10 µM) | 0.356 | 0.36 | 0.473 | 0.456 | 0.191 | 0.251 | 0.945 | 0.806 | 0.794 | 0.684 | 0.42 | 0.609 | 0.726 | 0.752 | 0.668 | 0.332 | 0.377 | 0.51 | 1 | 0.448
12 | Cc1cc2ncnn2cc1Nc1ncc2c(n1)n(C1CCOCC1)c(=O)n2C [AZD7648] + C=CCn1c(=O)c2cnc(Nc3ccc(N4CCN(C)CC4)cc3)nc2n1-c1cccc(C(C)(C)O)n1 [AZD1775] (first compound max 10 µM, partner max 1 µM) | 0.175 | 0.592 | 0.391 | 0.545 | 0.341 | 0.483 | 0.937 | 0.799 | 0.594 | 0.522 | 0.48 | 0.853 | 0.744 | 0.81 | 0.827 | 0.32 | 0.486 | 0.474 | 1 | 0.461
13 | Cc1cc2ncnn2cc1Nc1ncc2c(n1)n(C1CCOCC1)c(=O)n2C [AZD7648] + CCN(CCO)CCCOc1ccc2c(Nc3cc(CC(=O)Nc4cccc(F)c4)[nH]n3)ncnc2c1 [AZD2811] (first compound max 10 µM, 7x7, partner max 1 µM) | 0.212 | 0.47 | 0.164 | 0.359 | 0.285 | 0.245 | 0.574 | 0.66 | 0.183 | 0.457 | 0.445 | 0.334 | 0.548 | 0.704 | 0.838 | 0.214 | 0.359 | 0.389 | 0.993 | 0.276
